{
  "source": "patent US20060111443A1",
  "about": "“Preventive therapeutic composition for muscular fatigue, pulled muscle and disease attributed thereto” (priority 2002, published 2006)",
  "key": {"healthy subjects": {"test_system": "healthy subjects", "assay": "Analyzing test of blood components (myoglobin, lactic acid, CPK) after exercise stress", "assay_type": "in vivo, human", "details": "value just after exercise stress = 100%", "experimental": "To 20 healthy subjects (14 males and 6 females), was given an exercise stress of 15 km running within a limited time of 2 hours. The 20 subjects who run the whole distance within the limited time were divided into 2 groups by the arrival order, that is, one group consisting of 10 subjects of odd-numbered order of arrival (8 male subjects and 2 female subjects) and the other group consisting of 10 subjects of even-numbered order of arrival (6 male subjects and 4 female subjects). To the group of odd numbers was administered tranilast (hereinafter referred to as Medicine administration group) and to the group of even numbers was not administered (hereinafter referred to as Control group). […]\nIn each group, bloods were collected at a time of just before, just after, 3 days and 7 days after the exercise stress. And, blood components considered relevant to muscular fatigue and muscular damage (myoglobin, lactic acid and CPK) were analyzed, and relative degrees of changes of blood concentrations which are converted into relative values to the concentrations just after the exercise stress set as 100% were calculated."}, "[1]": {"details": "repeated administration of 300 mg a day; cited from earlier work"}},
  "data": [
    {"smiles": "COc1ccc(/C=C/C(=O)Nc2ccccc2C(=O)O)cc1OC", "note": "[tranilast, N-(3,4-dimethoxycinnnamoyl)anthranilic acid]", "values": [
      {"measurement": "relative degree of change of blood concentration of CPK", "setting": "healthy subjects; 3 days after exercise stress, control 160% or more", "result": "about 110%"},
      {"measurement": "relative degree of change of blood concentration of CPK", "setting": "healthy subjects; 7 days after exercise stress, control about 90%", "result": "about 60%"},
      {"measurement": "time at which tranilast concentration in blood reached the maximum", "setting": "[1]", "result": 2, "unit": "days"}
    ]}
  ]
}
